From US20060045953A1 (priority 2004, published 2006) come the findings set out here.

The target in one assay is T1, hT1R1/hT1R3 umami receptor (Homo sapiens, UniProt Q7RTX0+Q7RTX1).
T1 construct: expressed in transfected cells; host or cells: HEK293 derivative stably expressing Gα15, clone I-17, expression induced with mifepristone
T1 sequence (Q7RTX1 21-841): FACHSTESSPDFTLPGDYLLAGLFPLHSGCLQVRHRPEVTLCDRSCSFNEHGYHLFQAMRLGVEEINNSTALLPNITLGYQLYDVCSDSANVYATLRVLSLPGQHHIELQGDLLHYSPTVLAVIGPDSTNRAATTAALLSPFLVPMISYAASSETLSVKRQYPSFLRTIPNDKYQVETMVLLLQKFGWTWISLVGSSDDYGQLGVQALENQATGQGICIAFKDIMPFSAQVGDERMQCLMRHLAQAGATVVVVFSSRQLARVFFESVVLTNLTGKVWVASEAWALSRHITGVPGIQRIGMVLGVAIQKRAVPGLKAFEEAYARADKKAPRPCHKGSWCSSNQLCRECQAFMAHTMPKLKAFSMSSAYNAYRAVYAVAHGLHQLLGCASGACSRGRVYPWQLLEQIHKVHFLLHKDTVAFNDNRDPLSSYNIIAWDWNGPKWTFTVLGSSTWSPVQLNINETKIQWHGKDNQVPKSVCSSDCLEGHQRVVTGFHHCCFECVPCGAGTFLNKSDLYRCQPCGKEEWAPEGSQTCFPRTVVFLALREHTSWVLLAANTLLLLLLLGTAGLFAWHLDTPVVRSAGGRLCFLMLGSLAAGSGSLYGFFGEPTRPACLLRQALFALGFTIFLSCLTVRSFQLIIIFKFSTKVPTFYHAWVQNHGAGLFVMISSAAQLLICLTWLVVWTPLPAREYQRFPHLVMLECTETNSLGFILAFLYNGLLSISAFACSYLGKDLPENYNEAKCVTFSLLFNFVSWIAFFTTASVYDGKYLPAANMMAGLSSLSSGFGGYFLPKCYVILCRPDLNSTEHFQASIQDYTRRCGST
T1 sequence (Q7RTX0 21-852): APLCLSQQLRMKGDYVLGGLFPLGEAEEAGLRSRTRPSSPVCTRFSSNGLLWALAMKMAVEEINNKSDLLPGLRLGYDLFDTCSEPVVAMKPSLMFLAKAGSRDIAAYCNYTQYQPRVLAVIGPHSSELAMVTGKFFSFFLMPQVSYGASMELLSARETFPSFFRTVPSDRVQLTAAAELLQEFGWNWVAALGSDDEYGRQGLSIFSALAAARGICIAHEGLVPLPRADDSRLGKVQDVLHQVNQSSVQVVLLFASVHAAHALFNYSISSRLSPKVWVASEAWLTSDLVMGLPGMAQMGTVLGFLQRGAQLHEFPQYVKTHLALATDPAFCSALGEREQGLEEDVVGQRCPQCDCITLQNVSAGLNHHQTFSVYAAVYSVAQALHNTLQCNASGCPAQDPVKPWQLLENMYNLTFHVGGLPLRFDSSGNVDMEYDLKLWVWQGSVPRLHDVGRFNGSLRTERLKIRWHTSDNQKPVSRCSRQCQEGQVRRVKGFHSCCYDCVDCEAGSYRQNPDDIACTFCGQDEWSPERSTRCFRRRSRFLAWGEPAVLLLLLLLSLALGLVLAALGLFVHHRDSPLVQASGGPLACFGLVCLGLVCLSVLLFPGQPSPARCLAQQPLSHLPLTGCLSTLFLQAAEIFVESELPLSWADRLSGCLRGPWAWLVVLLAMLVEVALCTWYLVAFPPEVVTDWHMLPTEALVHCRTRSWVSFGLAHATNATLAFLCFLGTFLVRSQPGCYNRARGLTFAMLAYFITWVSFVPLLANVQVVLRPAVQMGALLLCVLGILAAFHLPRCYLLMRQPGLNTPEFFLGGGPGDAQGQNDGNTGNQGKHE
As to the kind of experiment: In vitro hT1R1/hT1R3 umami taste receptor activation assay (FLIPR, dose response). In kind it is cell-based. Particulars: Table A, Umami Amides; read-out: Umami EC50.
Turning to `COc1ccc2oc(C(=O)NC(C(C)C)C(C)C)cc2c1` [Example A17, N-(2,4-dimethylpentan-3-yl)-5-methoxybenzofuran-2-carboxamide], the EC50 came to 1200 nM. Still for that read-out and setting: the value for `O=C(N[C@H]1CCCc2ccccc21)c1ccc2c(c1)OCO2` [Example A47, (S)-N-(1,2,3,4-tetrahydronaphthalen-1-yl)benzo[d][1,3]dioxole-5-carboxamide] was 1330 nM; that for `CCCC(CC(C)C)NC(=O)c1ccc(OCC)c(C)c1` (stereo not shown) [Example A92, 4-ethoxy-3-methyl-N-(2-methylheptan-4-yl)benzamide] was 650 nM; that for `CCCOc1ccc(C(=O)N[C@H](CC(C)C)C(=O)OC)cc1` [Example A82, (R)-methyl 4-methyl-2-(4-propoxybenzamido)pentanoate] was 510 nM. With `COC(=O)[C@@H](CC(C)C)NC(=O)c1cccc(C)c1` [Example A99, (R)-methyl 4-methyl-2-(3-methylbenzamido)pentanoate], the EC50 is 890 nM.

In the case of `COC(=O)[C@@H](CC(C)C)NC(=O)c1ccc2c(c1)CCO2` [Example A46, (R)-methyl 2-(2,3-dihydrobenzofuran-5-carboxamido)-4-methylpentanoate], the EC50 was determined as 1320 nM. Still for that read-out and setting: the value for `COC[C@@H](CC(C)C)NC(=O)c1cc2cc(OC)ccc2o1` [Example A7, (R)-5-methoxy-N-(1-methoxy-4-methylpentan-2-yl)benzofuran-2-carboxamide] was 460 nM; that for `CCCC(CCC)NC(=O)c1cccc(CC)c1` [Example A116, 3-ethyl-N-(heptan-4-yl)benzamide] was 10 nM. Same read-out and setting: as for `CCCC(CCC)NC(=O)c1ccc(-c2cnco2)cc1` [Example A128, N-(heptan-4-yl)-4-(oxazol-5-yl)benzamide], the figure is 400 nM; as for `CCCC(CC)NC(=O)c1ccc(SC)c(C)c1` (stereo not shown) [Example A54, N-(hexan-3-yl)-3-methyl-4-(methylthio)benzamide], 120 nM.

Staying with this assay, now noted: Table C, Umami Ureas; read-out: Umami EC50.
With `CCC(CC(C)C)NC(=O)Nc1ccc2c(c1)OCO2` (stereo not shown) [Example C25, 1-(benzo[d][1,3]dioxol-5-yl)-3-(5-methylhexan-3-yl)urea], the EC50 came out at 480 nM.

Turning to `CCCC(CCC)NC(=O)Nc1ccc(C)cc1Cl` [Example C20, 1-(2-chloro-4-methylphenyl)-3-(heptan-4-yl)urea], the EC50 was found to be 90 nM. For `CCCC(CCC)NC(=O)Nc1ccccc1SC` [Example C18, 1-(heptan-4-yl)-3-(2-(methylthio)phenyl)urea], the EC50 is 260 nM.

`O=C(Nc1ccccc1F)NC1CCCc2ccccc21` (stereo not shown) [Example C11, 1-(2-fluorophenyl)-3-(1,2,3,4-tetrahydronaphthalen-1-yl)urea]: the EC50 came out at 1650 nM.

Take `CCC(CC)NC(=O)Nc1ccc(OC)cc1OC` [Example C13, 1-(2,4-dimethoxyphenyl)-3-(pentan-3-yl)urea]: the EC50 worked out at 1720 nM.

Staying with this assay, now noted: Table D, Umami Acrylamides; read-out: Umami EC50.
With `COc1ccc(/C=C/C(=O)NC(C(C)C)C(C)C)cc1` [Example D1, (E)-N-(2,4-dimethylpentan-3-yl)-3-(4-methoxyphenyl)acrylamide], the EC50 was determined as 290 nM. Still for that read-out and setting: the value for `COC(=O)[C@@H](CC(C)C)NC(=O)/C=C/c1ccsc1` [Example D10, (R,E)-methyl 4-methyl-2-(3-(thiophen-3-yl)acrylamido)pentanoate] was 1090 nM.

Still in this assay, the particulars now being: opposite enantiomers compared; read-out: AFFINITY FOR T1R1/T1R3 SAVORY RECEPTOR EC50 UM.
As to `CCOc1ccc(C(=O)N[C@H]2CCc3ccccc32)cc1C` [drawing 28, (S)-N-(2,3-dihydro-1H-inden-1-yl)-4-ethoxy-3-methylbenzamide], the EC50 was 850 nM.

The same assay, now with this note: read-out: EC50 for activation of a hT1R1/hT1R3 umami receptor expressed in an HEK293 cell line.
Turning to `CCCC(NC(=O)c1ccc(OCC)c(C)c1)c1ccc(OC)cc1` (stereo not shown) [Example 116, 4-Ethoxy-N-[1-(4-methoxy-phenyl)-butyl]-3-methyl-benzamide], the EC50 came to 3900 nM. As to `COC(=O)[C@@H](CC(C)C)NC(=O)c1ccc(SC)cc1OC` [Example 74, (R)-methyl 2-(2-methoxy-4-(methylthio)benzamido)-4-methylpentanoate], the EC50 came out at 15800 nM. On the same count and under the same terms, as for `CC(C)C[C@H](CO)NC(=O)c1ccc2c(c1)OCO2` [Example 8, (R)-N-(1-hydroxy-4-methylpentan-2-yl)benzo [d][1,3]dioxole-5-carboxamide], the figure is 9000 nM; as for `CCCC(CCC)NC(=O)/C=C/c1ccccc1F` [Example 85, 3-(2-Fluoro-phenyl)-N-(1-propyl-butyl)-acrylamide], 160 nM. Take `COc1ccc(/C=C/C(=O)N[C@@H](CO)Cc2ccccc2)cc1` [Example 81, N-(1-Benzyl-2-hydroxy-ethyl)-3-(4-methoxy-phenyl)-acrylamide]: the EC50 was 1100 nM. Still for that read-out and setting: the value for `CCC(CC(C)C)NC(=O)c1ccc(OC)c(C)c1` (stereo not shown) [Example 53, 4-methoxy-3-methyl-N-(5-methylhexan-3-yl)benzamide] was 90 nM; that for `O=C(NCc1ccc(OC(F)(F)F)cc1)c1cccs1` [Example 105, N-(4-(trifluoromethoxy)benzyl)thiophene-2-carboxamide] was 2400 nM.

On to `CCCC(CCC)NC(=O)c1ccc(C)c(SC)c1` [Example 48, 4-methyl-3-methylsulfanyl-N-(1-propylbutyl)benzamide], for which the EC50 is 210 nM. `CCCC(CCC)NC(=O)c1ccc2c(c1)OC(C)(C)O2` [Example 20, N-(heptan-4-yl)-2,2-dimethylbenzo[d][1,3]dioxole-5-carboxamide]: the EC50 is 2700 nM. On the same count and under the same terms, as for `O=C(NCCc1ccccn1)C(=O)NCc1cccc2c1OCO2` [Example 149, N-(Benzo[d][1,3]dioxol-4-ylmethyl)-N′-(2-(pyridin-2-yl)ethyl)oxalamide], the figure is 170 nM; as for `CCCC(CCC)NC(=O)c1cc2ccccc2o1` [Example 25, benzofuran-2-carboxylic(1-propylbutyl)amide], 880 nM; as for `CC(C)C[C@@H](NC(=O)c1ccc2c(c1)OCO2)C(=O)N(C)C` [Example 13, (R)-N-(1-(dimethylamino)-4-methyl-1-oxopentan-2-yl) benzo[d][1,3]dioxole-5-carboxamide], 1060 nM. Same read-out and setting: as for `COc1ccc(CNC(=O)C(=O)NCCc2ccccn2)cc1` [Example 128, N-(4-Methoxybenzyl)-N′-(2-pyridin-2-yl-ethyl)-oxalamide], the figure is 750 nM; as for `CCc1ccc(CNC(=O)C(=O)NCCc2ccccn2)cc1` [Example 139, N-(4-Ethylbenzyl)-N′-(2-(pyridin-2-yl)ethyl)oxalamide], 790 nM; as for `CSc1ccccc1CNC(=O)C(=O)NCCc1ccccn1` [Example 147, N-(2-(Methylthio)benzyl)-N′-(2-(pyridin-2-yl)ethyl)oxalamide], 960 nM. The same measure, in the same setting: the value for `COC[C@@H](CC(C)C)NC(=O)c1ccc2c(c1)OCO2` [Example 9, (R)-N-(1-methoxy-4-methylpentan-2-yl)benzo[d][1,3]dioxole-5-benzo[d][1,3]dioxole-5-carboxylic acid] was 3500 nM; that for `CCC(CC(C)C)NC(=O)c1ccc(C)c(C)c1` (stereo not shown) [Example 70, 3,4-dimethyl-N-(5-methylhexan-3-yl)benzamide] was 170 nM; that for `CCCC(CCC)NC(=O)c1ccc(OCCOC)c(C)c1` [Example 59, N-(heptan-4-yl)-4-(2-methoxyethoxy)-3-methylbenzamide] was 210 nM. With `COc1ccc(C(=O)NCCSCc2ccco2)cc1C` [Example 106, N-(2-(furan-2-ylmethylthio)ethyl)-4-methoxy-3-methylbenzamide], the EC50 is 5600 nM.
